Patent publication US20250032460A1, “METHODS OF TREATING NEUROLOGICAL DISORDERS” (MapLight Therapeutics, Inc., priority 2021, published 2025)

Legend:
[1] = system: Compound 1 induced salivation; assay: Fesoterodine dose-response antagonistic effect on Compound 1 induced salivation in anaesthetized rats; format: in vivo, Sprague Dawley rats
Description: An in vivo primary pharmacology study evaluating the fesoterodine fumarate dose-response antagonistic effect on Compound 1 induced salivation in anaesthetized male Sprague Dawley rats was conducted. […] Intravenous fesoterodine doses were administered at […]. Fesoterodine was dosed 10 minutes prior to dosage of Compound 1. All animals were normal with no observed abnormality detected in clinical signs or behavior. Salivation was measured by using oral dry swab in anesthetized rats with the calculated difference between the dry swab weight and the wet swab weight indicating the weight of saliva produced. Samples were collected post-dosing for one hour at 10-minute intervals.

[2] = system: salivation; assay: Single ascending dose study: salivation (pharmacodynamics); format: in vivo, healthy adult volunteers; settings: Group 2: 8 mg fesoterodine fumarate 4 hours prior to 40 mg Compound 1, vs placebo pre-treatment (FIG. 2)
Description: MTD was established at the dose which produced mild to moderate cholinergic adverse effects. Cholinergic effects were monitored for each dose, including pupillometry and salivation.
Group 2 evaluated tolerability of Compound 1 at Group 1 MTD with or without fesoterodine fumarate co-administration. Subjects received 8 mg of fesoterodine fumarate tablet or matched placebo tablet 4 hours prior to administration of 40 mg of Compound 1.

[3] = Clinical observations during 7-day oral dosing in beagle dogs; settings: for Clinical Observation: Group 2: fesoterodine fumarate 3 mg/kg/day PO, individual dog
[4] = Fesoterodine 0.0078 mg/mL IV 10 min prior to Compound 1 (1.5 mg/kg) IV
[5] = Fesoterodine 0.0156 mg/mL IV 10 min prior to Compound 1 (1.5 mg/kg) IV
[6] = Fesoterodine 0.0312 mg/mL IV 10 min prior to Compound 1 (1.5 mg/kg) IV
[7] = Fesoterodine 0.0625 mg/mL IV 10 min prior to Compound 1 (1.5 mg/kg) IV
[8] = Fesoterodine 0.125 mg/mL IV 10 min prior to Compound 1 (1.5 mg/kg) IV
[9] = Fesoterodine 0.25 mg/mL IV 10 min prior to Compound 1 (1.5 mg/kg) IV
[10] = Fesoterodine 0.5 mg/mL IV 10 min prior to Compound 1 (1.5 mg/kg) IV

CC(C)C(=O)Oc1ccc(CO)cc1[C@H](CCN(C(C)C)C(C)C)c1ccccc1 [Fesoterodine, fesoterodine]
Salivation (mg) (mean value), 10 min [1, 4]: 347.49 mg
Salivation (mg) (mean value), 20 min [1, 4]: 90.03 mg
Salivation (mg) (mean value), 30 min [1, 4]: 26.31 mg
Salivation (mg) (mean value), 40 min [1, 4]: 10.29 mg
Salivation (mg) (mean value), 50 min [1, 4]: 9.96 mg
Salivation (mg) (mean value), 60 min [1, 4]: 7.74 mg
Salivation (mg) (mean value), Total [1, 4]: 491.83 mg
Salivation (mg) (mean value), 10 min [1, 5]: 163.43 mg
Salivation (mg) (mean value), 20 min [1, 5]: 69.8 mg
Salivation (mg) (mean value), 30 min [1, 5]: 30.58 mg
Salivation (mg) (mean value), 40 min [1, 5]: 16.26 mg
Salivation (mg) (mean value), 50 min [1, 5]: 11.66 mg
Salivation (mg) (mean value), 60 min [1, 5]: 5.71 mg
Salivation (mg) (mean value), Total [1, 5]: 297.45 mg
Salivation (mg) (mean value), 10 min [1, 6]: 95.37 mg
Salivation (mg) (mean value), 20 min [1, 6]: 61.86 mg
Salivation (mg) (mean value), 30 min [1, 6]: 29.68 mg
Salivation (mg) (mean value), 40 min [1, 6]: 8.31 mg
Salivation (mg) (mean value), 50 min [1, 6]: 8.78 mg
Salivation (mg) (mean value), 60 min [1, 6]: 6.64 mg
Salivation (mg) (mean value), Total [1, 6]: 210.64 mg
Salivation (mg) (mean value), 10 min [1, 7]: 66.8 mg
Salivation (mg) (mean value), 20 min [1, 7]: 27.58 mg
Salivation (mg) (mean value), 30 min [1, 7]: 12.89 mg
Salivation (mg) (mean value), 40 min [1, 7]: 9.18 mg
Salivation (mg) (mean value), 50 min [1, 7]: 6.56 mg
Salivation (mg) (mean value), 60 min [1, 7]: 2.45 mg
Salivation (mg) (mean value), Total [1, 7]: 125.47 mg
Salivation (mg) (mean value), 10 min [1, 8]: 45.22 mg
Salivation (mg) (mean value), 20 min [1, 8]: 21.91 mg
Salivation (mg) (mean value), 30 min [1, 8]: 7.85 mg
Salivation (mg) (mean value), 40 min [1, 8]: 5.06 mg
Salivation (mg) (mean value), 50 min [1, 8]: 4.73 mg
Salivation (mg) (mean value), 60 min [1, 8]: 3.5 mg
Salivation (mg) (mean value), Total [1, 8]: 88.27 mg
Salivation (mg) (mean value), 10 min [1, 9]: 7 mg
Salivation (mg) (mean value), 20 min [1, 9]: 3.13 mg
Salivation (mg) (mean value), 30 min [1, 9]: 3.17 mg
Salivation (mg) (mean value), 40 min [1, 9]: 2.15 mg
Salivation (mg) (mean value), 50 min [1, 9]: 2.49 mg
Salivation (mg) (mean value), 60 min [1, 9]: 1.37 mg
Salivation (mg) (mean value), Total [1, 9]: 19.31 mg
Salivation (mg) (mean value), 10 min [1, 10]: 7.23 mg
Salivation (mg) (mean value), 20 min [1, 10]: 2.83 mg
Salivation (mg) (mean value), 30 min [1, 10]: 1.21 mg
Salivation (mg) (mean value), 40 min [1, 10]: 4.11 mg
Salivation (mg) (mean value), 50 min [1, 10]: 2.5 mg
Salivation (mg) (mean value), 60 min [1, 10]: 1.8 mg
Salivation (mg) (mean value), Total [1, 10]: 19.69 mg
Fesoterodine effect with Compound 1 on salivation ([1]; Fesoterodine 0.0078-0.5 mg/mL IV prior to Compound 1): significant decrease of salivation in a consistent dose-responsive manner
effect of fesoterodine pre-treatment on the increase in salivation post Compound 1 dosing ([2]; listed as fesoterodine): nearly abolished both subjective reports of hypersalivation and the objective increase in saliva volume
effect of fesoterodine pre-treatment on the increase in salivation post Compound 1 dosing ([2]; listed as fesoterodine fumarate): not observed
peripheral side effects observed after dosing ([3]; Group 1 Compound 1 1.5 mg/kg/day PO alone, Group 3 with fesoterodine fumarate 3 mg/kg/day PO, 7 days): substantially reduced the peripheral effects
Clinical Observation ([3]; 7 day period): none
Clinical Observation ([3]; day 1): For D2001, miosis was found 1 hr 10 min after dosing on day 1. 2 hr
